Data published in patent US11304929B2, “Tosylacetate based compounds and derivatives thereof as PHGDH inhibitors” (priority 2017, dated 2022).

What follows are compounds tested against PHGDH (Homo sapiens (Human), UniProt O43175) (assay: 3-Phosphoglycerate Dehydrogenase (PHGDH) Fluorescence Intensity Assay, run at two NAD/3-PG ratios: PHGDH_HIGH_NAD/3-PG (250 μM NAD/500 μM 3-PG) and PHGDH_500_NAD/3-PG (500 μM NAD/500 μM 3-PG)). Settings: 250 μM NAD/500 μM 3-PG; read-out: IC50 (PHGDH_HIGH_NAD/3-PG).
Sequence of PHGDH (O43175 2-533 limits assumed): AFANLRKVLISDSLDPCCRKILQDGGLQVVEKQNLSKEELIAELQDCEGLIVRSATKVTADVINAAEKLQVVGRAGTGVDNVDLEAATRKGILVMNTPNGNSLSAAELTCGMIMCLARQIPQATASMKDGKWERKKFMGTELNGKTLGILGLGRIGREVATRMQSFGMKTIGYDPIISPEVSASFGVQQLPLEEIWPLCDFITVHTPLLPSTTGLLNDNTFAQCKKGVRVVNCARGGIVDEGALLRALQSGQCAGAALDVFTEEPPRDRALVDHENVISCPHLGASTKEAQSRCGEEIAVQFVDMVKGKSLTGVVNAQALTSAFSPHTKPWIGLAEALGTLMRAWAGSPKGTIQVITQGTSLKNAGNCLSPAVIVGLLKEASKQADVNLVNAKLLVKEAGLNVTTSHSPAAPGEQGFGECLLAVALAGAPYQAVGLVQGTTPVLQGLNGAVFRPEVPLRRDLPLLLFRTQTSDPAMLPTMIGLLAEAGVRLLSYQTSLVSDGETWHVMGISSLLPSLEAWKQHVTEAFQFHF
Type: biochemical
Work on Cc1cc(Cl)c2cc(C(=O)N[C@H](C)c3ccc(S(=O)(=O)CC(=O)OCC(CO)CO)cc3)n(C)c2c1 [Example 09-027, 3-hydroxy-2-(hydroxymethyl)propyl 2-{4-[(1R)-1-[(4-chloro-1,6-dimethyl-1H-indol-2-yl)formamido]ethyl]benzenesulfonyl}acetate] yielded an IC50 of 160 nM. Cc1cc(Cl)c2cc(C(=O)N[C@H](CO)c3ccc(S(=O)(=O)CC(=O)OC4CCOCC4)cc3)n(C)c2c1 [Example 09-028, oxan-4-yl 2-{4-[(1S)-1-[(4-chloro-1,6-dimethyl-1H-indol-2-yl)formamido]-2-hydroxyethyl]benzenesulfonyl}acetate] showed an IC50 of 230 nM. In the case of Cc1cc(Cl)c2cc(C(=O)N[C@H](CO)c3ccc(S(=O)(=O)CC(=O)O[C@H]4CCOC4)cc3)n(C)c2c1 [Example 09-030, (3S)-oxolan-3-yl 2-{4-[(1S)-1-[(4-chloro-1,6-dimethyl-1H-indol-2-yl)formamido]-2-hydroxyethyl]benzenesulfonyl}acetate], the IC50 is reported as 85 nM. With Cc1cc(Cl)c2cc(C(=O)N[C@H](CO)c3ccc(S(=O)(=O)CC(=O)OCC4(C)COC4)cc3)n(C)c2c1 [Example 09-031, (3-methyloxetan-3-yl)methyl 2-{4-[(1S)-1-[(4-chloro-1,6-dimethyl-1H-indol-2-yl)formamido]-2-hydroxyethyl]benzenesulfonyl}acetate] the IC50 was 61 nM. With Cc1cc(Cl)c2cc(C(=O)N[C@H](CO)c3ccc(S(=O)(=O)CC(=O)OCCCO)cc3)n(C)c2c1 [Example 09-033, 3-hydroxypropyl 2-{4-[(1S)-1-[(4-chloro-1,6-dimethyl-1H-indol-2-yl)formamido]-2-hydroxyethyl]benzenesulfonyl}acetate] the IC50 was 98 nM. Work on Cc1cc(Cl)c2cc(C(=O)N[C@H](CO)c3ccc(S(=O)(=O)CC(=O)OCCO)cc3)n(C)c2c1 [Example 09-034, 2-hydroxyethyl 2-{4-[(1S)-1-[(4-chloro-1,6-dimethyl-1H-indol-2-yl)formamido]-2-hydroxyethyl]benzenesulfonyl}acetate] yielded an IC50 of 52 nM. Compound Cc1cc(Cl)c2cc(C(=O)N[C@H](CO)c3ccc(S(=O)(=O)CC(=O)OCC4COC4)cc3)n(C)c2c1 [Example 09-035, oxetan-3-ylmethyl 2-{4-[(1S)-1-[(4-chloro-1,6-dimethyl-1H-indol-2-yl)formamido]-2-hydroxyethyl]benzenesulfonyl}acetate] has an IC50 of 54 nM. With COCCOC(=O)CS(=O)(=O)c1ccc([C@@H](C)NC(=O)c2cc(-c3ccccc3)nn2C)cc1 [Example 10-001, 2-methoxyethyl 2-{4-[(1R)-1-[(1-methyl-3-phenyl-1H-pyrazol-5-yl)formamido]ethyl]benzenesulfonyl}acetate] the IC50 was 1450 nM. C[C@@H](NC(=O)c1cc(-c2ccccc2)nn1C)c1ccc(S(=O)(=O)CC(=O)OCCN(C)C)cc1 [Example 10-002, 2-(dimethylamino)ethyl 2-{4-[(1R)-1-[(1-methyl-3-phenyl-1H-pyrazol-5-yl)formamido]ethyl]benzenesulfonyl}acetate] showed an IC50 of 497 nM. With C[C@@H](NC(=O)c1cc(-c2ccccc2)nn1C)c1ccc(S(=O)(=O)CC(=O)OCCF)cc1 [Example 10-004, 2-fluoroethyl 2-{4-[(1R)-1-[(1-methyl-3-phenyl-1H-pyrazol-5-yl)formamido]ethyl]benzenesulfonyl}acetate] the IC50 was 1440 nM. C[C@@H](NC(=O)c1cc(-c2ccc(F)cc2)nn1C)c1ccc(S(=O)(=O)CC(=O)OCCO)cc1 [Example 10-005, 2-hydroxyethyl 2-{4-[(1R)-1-{[3-(4-fluorophenyl)-1-methyl-1H-pyrazol-5-yl]formamido}ethyl]benzenesulfonyl}acetate] showed an IC50 of 766 nM. C[C@@H](NC(=O)c1cc(-c2ccc(F)cc2)nn1C)c1ccc(S(=O)(=O)CC(=O)OCC2COC2)cc1 [Example 10-007, oxetan-3-ylmethyl 2-{4-[(1R)-1-{[3-(4-fluorophenyl)-1-methyl-1H-pyrazol-5-yl]formamido}ethyl]benzenesulfonyl}acetate] was tested, and the IC50 was 714 nM. For COC(=O)C[S+]([O-])c1ccc([C@@H](C)NC(=O)c2cc3c(Cl)c(Cl)c(C)cc3n2C)cc1 (stereo partly drawn) [Example 11-001, methyl 2-{4-[(1R)-1-[(4,5-dichloro-1,6-dimethyl-1H-indol-2-yl)formamido]ethyl]benzenesulfinyl}acetate], the IC50 was 296 nM.

Same assay, conditions: 500 μM NAD/500 μM 3-PG; read-out: IC50 (PHGDH_500_NAD/3-PG)
Compound Cc1cc2c(cc(C(=O)N[C@H](CO)c3ccc(S(=O)(=O)CC(=O)OCCO)cc3)n2C)c(Cl)c1Cl [Example 09-036, 2-hydroxyethyl 2-{4-[(1S)-1-[(4,5-dichloro-1,6-dimethyl-1H-indol-2-yl)formamido]-2-hydroxyethyl]benzenesulfonyl}acetate] has an IC50 of 107 nM. Work on Cc1cc2c(cc(C(=O)N[C@H](CO)c3ccc(S(=O)(=O)CC(=O)OC4CCOCC4)cc3)n2C)c(F)c1F [Example 09-037, oxan-4-yl 2-{4-[(1S)-1-[(4,5-difluoro-1,6-dimethyl-1H-indol-2-yl)formamido]-2-hydroxyethyl]benzenesulfonyl}acetate] yielded an IC50 of 578 nM. Cc1cc2c(cc(C(=O)N[C@H](CO)c3ccc(S(=O)(=O)CC(=O)OCCCO)cc3)n2C)c(F)c1F [Example 09-038, 3-hydroxypropyl 2-{4-[(1S)-1-[(4,5-difluoro-1,6-dimethyl-1H-indol-2-yl)formamido]-2-hydroxyethyl]benzenesulfonyl}acetate] was tested, and the IC50 was 255 nM. Cc1cc2c(cc(C(=O)N[C@H](CO)c3ccc(S(=O)(=O)CC(=O)OCC(C)(C)O)cc3)n2C)c(Cl)c1Cl [Example 09-039, 2-hydroxy-2-methylpropyl 2-{4-[(1S)-1-[(4,5-dichloro-1,6-dimethyl-1H-indol-2-yl)formamido]-2-hydroxyethyl]benzenesulfonyl}acetate] gave an IC50 of 168 nM. Compound Cc1cc2c(cc(C(=O)N[C@H](CO)c3ccc(S(=O)(=O)CC(=O)OCCCO)cc3)n2C)c(Cl)c1Cl [Example 09-040, 3-hydroxypropyl 2-{4-[(1S)-1-[(4,5-dichloro-1,6-dimethyl-1H-indol-2-yl)formamido]-2-hydroxyethyl]benzenesulfonyl}acetate] has an IC50 of 190 nM. For Cc1cc2c(cc(C(=O)N[C@H](CO)c3ccc(S(=O)(=O)CC(=O)OCCO)cc3)n2C)c(F)c1F [Example 09-041, 2-hydroxyethyl 2-{4-[(1S)-1-[(4,5-difluoro-1,6-dimethyl-1H-indol-2-yl)formamido]-2-hydroxyethyl]benzenesulfonyl}acetate], the IC50 was 156 nM. Cc1cc2c(cc(C(=O)N[C@H](CO)c3ccc(S(=O)(=O)CC(=O)OCC(C)(C)CO)cc3)n2C)c(F)c1F [Example 09-042, 3-hydroxy-2,2-dimethylpropyl 2-{4-[(1S)-1-[(4,5-difluoro-1,6-dimethyl-1H-indol-2-yl)formamido]-2-hydroxyethyl]benzenesulfonyl}acetate] showed an IC50 of 509 nM. Work on Cc1cc2c(cc(C(=O)N[C@H](CO)c3ccc(S(=O)(=O)CC(=O)OCC(C)(C)O)cc3)n2C)c(F)c1F [Example 09-043, 2-hydroxy-2-methylpropyl 2-{4-[(1S)-1-[(4,5-difluoro-1,6-dimethyl-1H-indol-2-yl)formamido]-2-hydroxyethyl]benzenesulfonyl}acetate] yielded an IC50 of 246 nM. For Cc1cc2c(cc(C(=O)N[C@H](CO)c3ccc(S(=O)(=O)CC(=O)OCC(C)(C)CO)cc3)n2C)c(Cl)c1Cl [Example 09-044, 3-hydroxy-2,2-dimethylpropyl 2-{4-[(1S)-1-[(4,5-dichloro-1,6-dimethyl-1H-indol-2-yl)formamido]-2-hydroxyethyl]benzenesulfonyl}acetate], the IC50 was 419 nM. Compound COC(=O)C[S+]([O-])c1ccc([C@@H](C)NC(=O)c2cc3c(Cl)c(Cl)c(C)cc3n2C)cc1 (stereo partly drawn) [Example 11-001, methyl 2-{4-[(1R)-1-[(4,5-dichloro-1,6-dimethyl-1H-indol-2-yl)formamido]ethyl]benzenesulfinyl}acetate] has an IC50 of 436 nM.
